Assay results as given in publication PMC11455612 (Cell, 2024).

Assays:
[1] = biological target: phosphatidylserine synthase 1 (PSS1) (Homo sapiens, UniProt P48651); test: cryo-EM structure at […] Å; type: biochemical
[2] = biological target: phosphatidylserine synthase 1 (PSS1) (Homo sapiens, UniProt P48651, P269S); type: biochemical

SMILES: CC(F)(F)CN1C(=O)c2[nH]nc(-c3cccc4[nH]c(=O)oc34)c2[C@@H]1c1ccc(Oc2cc(C(F)(F)F)cc(C(F)(F)F)c2)cc1 [DS, DS55980254]
- IC50 [1]: 1650 nM
- IC50 [2]: 1270 nM
